Measurements reported in patent US6537948B1, “Uracil compounds and use thereof” (Sumitomo Chemical Company, Limited, priority 2000, dated 2003).

Columns and labels:
Assay type in all cases: in vivo
[1] = test system: ivyleaf morningglory (Ipomoea hederacea); experiment: Test Example 1: foliar treatment of field; conditions: foliar spray, dosage 125 g/ha, 16 days after application
Description: (§1) A cylindrical plastic pot having a diameter of 10 cm and a depth of 10 cm was filled with soil and then seeded with ivyleaf morningglory (Ipomoea hederacea) and velvetleaf (Abutilon theophrasti). These test plants were grown in a greenhouse for 10 days. Then, each of compounds 1-2, 1-42, 1-45, 1-48, 2-2, 2-7, 2-42, 2-45, 3-2, 3-12, 4-7, 4-85, 5-12-R, 5-12-S, 5-17, 6-2, 7-2, 7-6, 7-8, 7-12, 7-48, 7-50, 7-84, 7-118, 7-119, 7-125, 9-7, 9-27 and 9-45 was formulated into an emulsifiable concentrate according to Formulation Example 2 and then diluted to the prescribed amount with water containing a spreading agent and the dilution was uniformly sprayed over the foliage of the test plants with a sprayer at a rate of 1000 liters per hectare. After the application, the test plants were grown in the greenhouse for 16 days, and the herbicidal activity was determined.

[2] = test system: velvetleaf (Abutilon theophrasti); experiment: Test Example 1: foliar treatment of field; conditions: foliar spray, dosage 125 g/ha, 16 days after application
Description: as §1

[3] = test system: ivyleaf morningglory (Ipomoea hederacea); experiment: Test Example 2: soil surface treatment of field; conditions: soil surface spray, dosage 500 g/ha, 19 days after application
Source text: (§2) A cylindrical plastic pot having a diameter of 10 cm and a depth of 10 cm was filled with soil and then seeded with ivyleaf morningglory (Ipomoea hederacea) and velvetleaf (Abutilon theophrasti). Then, each of the compounds 1-2, 1-42, 1-48, 2-2, 2-7, 2-42, 2-45, 3-2, 3-12, 4-7, 4-85, 5-12-R, 5-12-S, 5-17, 6-2, 7-2, 7-6, 7-8, 7-12, 7-48, 7-50, 7-84, 7-118, 7-119, 7-125, 9-7, 9-27 and 9-45 was formulated into an emulsifiable concentrate according to Formulation Example 2 and then diluted to the prescribed amount with water, and the dilution was uniformly sprayed over the surface of the soil with a sprayer at a rate of 1000 liters per hectare. After the application, the test plants were grown in the greenhouse for 19 days, and the herbicidal activity was examined.

[4] = test system: velvetleaf (Abutilon theophrasti); experiment: Test Example 2: soil surface treatment of field; conditions: soil surface spray, dosage 500 g/ha, 19 days after application
Source text: as §2

COC(=O)C(C)Oc1ccnc(Oc2cc(-n3c(=O)cc(C(F)(F)F)n(C)c3=O)c(F)cc2Cl)n1 (stereo not drawn) [Compound 1-2, methyl 2-([2-{2-chloro-4-fluoro-5-[3-methyl-2,6-dioxo-4-(trifluoromethyl)-1,2,3,6-tetrahydropyrimidin-1-yl]phenoxy}pyrimidin-4-yl]oxy)propionate]
completely controlled: growth of ivyleaf morningglory (herbicidal activity) [1] | growth of velvetleaf (herbicidal activity) [2] | growth of ivyleaf morningglory (herbicidal activity) [3] | growth of velvetleaf (herbicidal activity) [4]

COC(=O)C(C)Oc1cccnc1Oc1cc(-n2c(=O)cc(C(F)(F)F)n(C)c2=O)c(F)cc1Cl (stereo not drawn) [Compound 2-2, 2-{2-chloro-4-fluoro-5-[3-methyl-2,6-dioxo-4-(trifluoromethyl)-1,2,3,6-tetrahydropyrimidin-1-yl]phenoxy}-3-{1-(methoxycarbonyl)ethoxy}pyridine]
completely controlled: growth of ivyleaf morningglory (herbicidal activity) [1] | growth of velvetleaf (herbicidal activity) [2] | growth of ivyleaf morningglory (herbicidal activity) [3] | growth of velvetleaf (herbicidal activity) [4]

COC(=O)COc1cccnc1Oc1cc(-n2c(=O)cc(C(F)(F)F)n(C)c2=O)c(F)cc1Cl [Compound 2-7, 2-{2-chloro-4-fluoro-5-[3-methyl-2,6-dioxo-4-(trifluoromethyl)-1,2,3,6-tetrahydropyrimidin-1-yl]phenoxy}-3-(methoxycarbonyl)methoxypyridine]
completely controlled: growth of ivyleaf morningglory (herbicidal activity) [1] | growth of velvetleaf (herbicidal activity) [2] | growth of ivyleaf morningglory (herbicidal activity) [3] | growth of velvetleaf (herbicidal activity) [4]

COC(=O)C(C)Oc1cccc(Oc2cc(-n3c(=O)cc(C(F)(F)F)n(C)c3=O)c(F)cc2Cl)n1 (stereo not drawn) [Compound 2-42, 2-{2-chloro-4-fluoro-5-[3-methyl-2,6-dioxo-4-(trifluoromethyl)-1,2,3,6-tetrahydropyrimidin-1-yl]phenoxy}-6-{1-(methoxycarbonyl)ethoxy}pyridine]
completely controlled: growth of ivyleaf morningglory (herbicidal activity) [1] | growth of velvetleaf (herbicidal activity) [2] | growth of ivyleaf morningglory (herbicidal activity) [3] | growth of velvetleaf (herbicidal activity) [4]

COC(=O)COc1cccc(Oc2cc(-n3c(=O)cc(C(F)(F)F)n(C)c3=O)c(F)cc2Cl)n1 [Compound 2-45, 2-{2-chloro-4-fluoro-5-[3-methyl-2,6-dioxo-4-(trifluoromethyl)-1,2,3,6-tetrahydropyrimidin-1-yl]phenoxy}-6-(methoxycarbonyl)methoxypyridine]
completely controlled: growth of ivyleaf morningglory (herbicidal activity) [1] | growth of velvetleaf (herbicidal activity) [2] | growth of ivyleaf morningglory (herbicidal activity) [3] | growth of velvetleaf (herbicidal activity) [4]

COC(=O)C(C)Oc1nccc(Oc2cc(-n3c(=O)cc(C(F)(F)F)n(C)c3=O)c(F)cc2Cl)n1 (stereo not drawn) [Compound 3-2, methyl 2-([4-{2-chloro-4-fluoro-5-[3-methyl-2,6-dioxo-4-(trifluoromethyl)-1,2,3,6-tetrahydropyrimidin-1-yl]phenoxy}pyrimidin-2-yl]oxy)propionate]
completely controlled: growth of ivyleaf morningglory (herbicidal activity) [1] | growth of velvetleaf (herbicidal activity) [2] | growth of ivyleaf morningglory (herbicidal activity) [3] | growth of velvetleaf (herbicidal activity) [4]

COC(=O)C(C)Oc1cc(Oc2cc(-n3c(=O)cc(C(F)(F)F)n(C)c3=O)c(F)cc2Cl)ncn1 (stereo not drawn) [Compound 3-12, methyl 2-([4-{2-chloro-4-fluoro-5-[3-methyl-2,6-dioxo-4-(trifluoromethyl)-1,2,3,6-tetrahydropyrimidin-1-yl]phenoxy}pyrimidin-6-yl]oxy)propionate]
completely controlled: growth of ivyleaf morningglory (herbicidal activity) [1] | growth of velvetleaf (herbicidal activity) [2] | growth of ivyleaf morningglory (herbicidal activity) [3] | growth of velvetleaf (herbicidal activity) [4]

COC(=O)COc1nc(C)ncc1Oc1cc(-n2c(=O)cc(C(F)(F)F)n(C)c2=O)c(F)cc1Cl [Compound 4-85, 5-{2-chloro-4-fluoro-5-[3-methyl-2,6-dioxo-4-(trifluoromethyl)-1,2,3,6-tetrahydropyrimidin-1-yl]phenoxy}-4-(methoxycarbonyl)methoxy-2-methylpyrimidine]
completely controlled: growth of ivyleaf morningglory (herbicidal activity) [1] | growth of velvetleaf (herbicidal activity) [2] | growth of ivyleaf morningglory (herbicidal activity) [3] | growth of velvetleaf (herbicidal activity) [4]

COC(=O)[C@@H](C)Oc1n[nH]c(C)c1Oc1cc(-n2c(=O)cc(C(F)(F)F)n(C)c2=O)c(F)cc1Cl [Compound 5-12-R, (R)-3-{1-(methoxycarbonyl)ethoxy}-4-{2-chloro-4-fluoro-5-[3-methyl-2,6-dioxo-4-(trifluoromethyl)-1,2,3,6-tetrahydropyrimidin-1-yl]phenoxy}-5-methylpyrazole]
completely controlled: growth of ivyleaf morningglory (herbicidal activity) [1] | growth of velvetleaf (herbicidal activity) [2] | growth of ivyleaf morningglory (herbicidal activity) [3] | growth of velvetleaf (herbicidal activity) [4]

COC(=O)[C@H](C)Oc1n[nH]c(C)c1Oc1cc(-n2c(=O)cc(C(F)(F)F)n(C)c2=O)c(F)cc1Cl [Compound 5-12-S, (S)-3-{1-(methoxycarbonyl)ethoxy}-4-{2-chloro-4-fluoro-5-[3-methyl-2,6-dioxo-4-(trifluoromethyl)-1,2,3,6-tetrahydropyrimidin-1-yl]phenoxy}-5-methylpyrazole]
completely controlled: growth of ivyleaf morningglory (herbicidal activity) [1] | growth of velvetleaf (herbicidal activity) [2] | growth of ivyleaf morningglory (herbicidal activity) [3] | growth of velvetleaf (herbicidal activity) [4]

COC(=O)COc1n[nH]c(C)c1Oc1cc(-n2c(=O)cc(C(F)(F)F)n(C)c2=O)c(F)cc1Cl [Compound 5-17, 3-(methoxycarbonyl)methoxy-4-{2-chloro-4-fluoro-5-[3-methyl-2,6-dioxo-4-(trifluoromethyl)-1,2,3,6-tetrahydropyrimidin-1-yl]phenoxy}-5-methylpyrazole]
completely controlled: growth of ivyleaf morningglory (herbicidal activity) [1] | growth of velvetleaf (herbicidal activity) [2] | growth of ivyleaf morningglory (herbicidal activity) [3] | growth of velvetleaf (herbicidal activity) [4]

COC(=O)C(C)Oc1ncccc1Oc1cc(-n2c(=O)cc(C(F)(F)F)n(C)c2=O)c(F)cc1Cl (stereo not drawn) [Compound 7-2, 3-{2-chloro-4-fluoro-5-[3-methyl-2,6-dioxo-4-(trifluoromethyl)-1,2,3,6-tetrahydropyrimidin-1-yl]phenoxy}-2-{1-(methoxycarbonyl)ethoxy} pyridine]
completely controlled: growth of ivyleaf morningglory (herbicidal activity) [1] | growth of velvetleaf (herbicidal activity) [2] | growth of ivyleaf morningglory (herbicidal activity) [3] | growth of velvetleaf (herbicidal activity) [4]

Cn1c(C(F)(F)F)cc(=O)n(-c2cc(Oc3cccnc3OCC(=O)O)c(Cl)cc2F)c1=O [Compound 7-6, 3-{2-chloro-4-fluoro-5-[3-methyl-2,6-dioxo-4-(trifluoromethyl)-1,2,3,6-tetrahydropyrimidin-1-yl]phenoxy}-2-carboxymethoxypyridine]
completely controlled: growth of ivyleaf morningglory (herbicidal activity) [1] | growth of velvetleaf (herbicidal activity) [2] | growth of ivyleaf morningglory (herbicidal activity) [3] | growth of velvetleaf (herbicidal activity) [4]

CCOC(=O)COc1ncccc1Oc1cc(-n2c(=O)cc(C(F)(F)F)n(C)c2=O)c(F)cc1Cl [Compound 7-8, 3-{2-chloro-4-fluoro-5-[3-methyl-2,6-dioxo-4-(trifluoromethyl)-1,2,3,6-tetrahydropyrimidin-1-yl]phenoxy}-2-(ethoxycarbonyl)methoxypyridine]
completely controlled: growth of ivyleaf morningglory (herbicidal activity) [1] | growth of velvetleaf (herbicidal activity) [2] | growth of ivyleaf morningglory (herbicidal activity) [3] | growth of velvetleaf (herbicidal activity) [4]

COC(=O)C(C)Oc1ccc(Oc2cc(-n3c(=O)cc(C(F)(F)F)n(C)c3=O)c(F)cc2Cl)cn1 (stereo not drawn) [Compound 7-12, 5-{2-chloro-4-fluoro-5-[3-methyl-2,6-dioxo-4-(trifluoromethyl)-1,2,3,6-tetrahydropyrimidin-1-yl]phenoxy}-2-{1-(methoxycarbonyl)ethoxy}pyridine]
completely controlled: growth of ivyleaf morningglory (herbicidal activity) [1] | growth of velvetleaf (herbicidal activity) [2] | growth of ivyleaf morningglory (herbicidal activity) [3] | growth of velvetleaf (herbicidal activity) [4]
